Values joined by “and” are separate entries in the source; they are usually repeats but may differ in a detail not shown here. Identical values can stand only once.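 Step 1: Grow cells in 96-well plates. Step 2: Expose to compound for 48 hours at 5 concentrations. Step 3: Interpolate endpoints linearly; if unreached, use highest concentration. At the GI50, growth is halved. TGI is the concentration that stops growth completely.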
Assays:
Experiment in all cases: NCI tumour cell line growth inhibition, 48 h
NCI-H522 lung = system: NCI-H522 lung
HL-60(TB) leukemia = system: HL-60(TB) leukemia
CCRF-CEM leukemia = system: CCRF-CEM leukemia
LOX IMVI melanoma = system: LOX IMVI melanoma
HCT-116 colon = system: HCT-116 colon
RXF 393 renal = system: RXF 393 renal
MCF7 breast = system: MCF7 breast
MDA-MB-231 breast = system: MDA-MB-231 breast
A498 renal = system: A498 renal
M14 melanoma = system: M14 melanoma

Compound	GI50 (NCI-H522 lung) [µM]	TGI (NCI-H522 lung)	GI50 (HL-60(TB) leukemia) [µM]	TGI (HL-60(TB) leukemia) [µM]	GI50 (CCRF-CEM leukemia) [µM]	TGI (CCRF-CEM leukemia) [µM]	GI50 (LOX IMVI melanoma) [µM]	TGI (LOX IMVI melanoma)	GI50 (HCT-116 colon) [µM]	TGI (HCT-116 colon)	GI50 (RXF 393 renal) [µM]	TGI (RXF 393 renal)	GI50 (MCF7 breast) [µM]	TGI (MCF7 breast)	GI50 (MDA-MB-231 breast) [µM]	TGI (MDA-MB-231 breast)	GI50 (A498 renal) [µM]	TGI (A498 renal)	GI50 (M14 melanoma) [µM]	TGI (M14 melanoma)
CCc1cc2c(c(OCC(F)(F)F)c(C(=O)NC3CCN(C(=O)CO)CC3)n2C)c(=O)n1CC(=O)c1ccccc1	> 95.9	> 100 µM	59.3	> 100	38.5	> 100	> 80	> 100 µM	63.5	> 100 µM	11.2	42.7 µM	44	> 100 µM	54.6	> 100 µM	99.3	> 100 µM	> 100	> 100 µM
CC(=O)O[C@@H]1c2c(c3c(=O)c4cccc(O)c4c(=O)c=3c2=[N+]=[N-])[C@H](OC(C)=O)[C@@H](OC(C)=O)[C@]1(C)O	0.0693	0.776 µM and 0.201 µM	0.172	–	–	0.0632	–	0.413 µM and 0.275 µM	0.271	0.617 µM and 0.89 µM	0.147	1.28 µM and 0.296 µM	0.142	1.11 µM and 0.291 µM	0.335	1.46 µM and 1.48 µM	1.34	1.82 µM and 3.02 µM	0.293	0.992 µM and 0.357 µM
Clc1ccc(-c2cnc3c(-c4ccnc(N5CCNCC5)c4)cnn3c2)cc1	2.37	5.89 µM	1.25	3.26	2.07	5.13	1.91	3.48 µM	1.71	3.09 µM	2.09	3.72 µM	1.85	3.66 µM	1.74	3.7 µM	1.65	3.06 µM	2	3.46 µM
COc1ccc(C2c3ccc4ccccc4c3Oc3ncn(CCCn4ccnc4)c(=N)c32)cc1OC (configuration not stated)	1.87	4.36 µM	2.04	4.05	2.52	6.9	1.88	3.7 µM	3.02	11 µM	1.78	4.64 µM	3.11	12.3 µM	2.44	8.01 µM	1.5	4.59 µM	1.98	3.83 µM
CCCCN(CCCC)P(=O)(Oc1ccccc1)Oc1ccccc1	3.96	18.2 µM	4.54	18.7	8.35	59.3	12.9	26.5 µM	3.39	16.8 µM	1.85	5.97 µM	4.83	18.6 µM	8.08	23.3 µM	11.6	24.1 µM	11.6	25.6 µM
Oc1ccc(N=Nc2ccc(Br)cc2)c(O)c1	1.74	6.53 µM	1.71	4.53	1.91	4.82	8.05	61.1 µM	3.25	14.1 µM	1.19	9.56 µM	2.2	54.3 µM	3.47	16.6 µM	3.26	20.7 µM	2.2	5.62 µM
Oc1nc(N2CCOCC2)sc1/C=C1\C=Nc2ccccc21	> 100	> 100 µM	> 100	> 100	> 100	> 100	> 100	> 100 µM	> 100	> 100 µM	> 100	> 100 µM	> 100	> 100 µM	> 100	> 100 µM	> 100	> 100 µM	> 100	> 100 µM
CC(C)[C@@]12C[C@@H](OC(=O)C3CO3)[C@@](C)(O1)[C@@H]1CC[C@@H](C)[C@H]1[C@@H]2OC(=O)/C=C/c1ccccc1 (some centres not stated)	17.4	37.3 µM	22.7	68.3	29	> 100	17	36.7 µM	23.8	> 100 µM	7.86	22.4 µM	19.8	83.3 µM	13.3	31.2 µM	2.05	4.91 µM	24.4	88.5 µM
O=c1[nH]c(-c2ccc(Cl)c(Cl)c2)cn1-c1ccc(Cl)cc1	44.3	> 100 µM	34.1	> 100	40.3	> 100	36.2	> 100 µM	15.8	34 µM	32.7	56.4 µM	56.3	> 100 µM	15.2	46 µM	22.2	47.6 µM	29.7	> 100 µM
COc1ccc(Nc2ncc(I)c(NCCCNC(=O)C3CCC3)n2)cc1	20.9	> 100 µM	3.47	14.7	4.96	> 100	1.66	13.6 µM	4.01	20.6 µM	1.27	6.54 µM	8.31	> 100 µM	1.66	5.31 µM	7.25	21.7 µM	13.4	> 100 µM
COc1cc2c(/C=C3\C(=O)N(C)c4ccccc43)c[nH]c2cc1C	8.82	> 87.5 µM	2.53	84.8	0.957	18.8	0.869	> 47.9 µM	0.369	> 41.7 µM	2.56	69.9 µM	0.12	> 100 µM	2.05	> 100 µM	4.96	48.9 µM	0.541	> 100 µM
